In patent publication US20240279302A1, “OLFACTORY RECEPTOR EXPRESSING METHOD AND RESPONSE MEASUREMENT METHOD” (Kao Corporation, priority 2021, published 2024):
Read-outs that look alike come from different tables or passages of the source.

Legend:
Assay in all cases: Luciferase assay, sulfur compounds
Type in all cases: cell-based
[1] = biological target: T1, consensus OR2T11 (Homo sapiens, UniProt Q8NH01)
T1 construct: fused on or other part: N-terminal Flag-Rho tag from the pME18S vector
Description: (§1) A reaction solution as to each consensus olfactory receptor prepared in Examples described above was prepared according to the composition shown in Table 4, left standing for 20 minutes in a clean bench, and then added to each well of a 96-well plate (Becton, Dickinson and Company). The original olfactory receptor was used as to OR4S2. Composition shown in Table 20 was used as to OR11H2 and OR4E2. Subsequently, 100 μL of HEK293 cells suspended in DMEM (Nacalai Tesque, Inc.) was inoculated at 2×10^5 cells/cm^2 to each well, and cultured for 24 hours in an incubator kept at 37° C. and 5% CO2. Cells expressing no olfactory receptor (Mock) were provided as a control.
(§2) The medium was removed from the cultures prepared in 1), and 75 μL of a test substance solution (methyl mercaptan (MeSH) (CAS: 74-93-1, Tokyo Chemical Industry Co., Ltd.), dimethyl sulfide (DMS) (CAS: 75-18-3, FUJIFILM Wako Pure Chemical Corp.), dimethyl disulfide (DMDS) (CAS: 624-92-0, Tokyo Chemical Industry Co., Ltd.), concentration range: 0 μM, 1 μM, 3 μM, 10 μM, 30 μM, 100 μM, and 300 μM, or dimethyl trisulfide (DMTS) (CAS: 3658-80-8, Tokyo Chemical Industry Co., Ltd.), concentration range: 0 μM, 0.1 μM, 0.3 μM, 1 μM, 3 μM, 10 μM, and 30 μM) prepared with a fresh medium was added thereto. Under a copper ion addition condition, the test substance solution was adjusted to contain 30 μM copper(II) chloride (FUJIFILM Wako Pure Chemical Corp.) in addition to the odorant. The cells were cultured for 4 hours in a CO2 incubator and the luciferase gene was expressed sufficiently in the cells. Luciferase activity was measured using Dual-Glo™ luciferase assay system (Promega Corp.) in accordance with the operation manual of the product. A luminescence value derived from firefly luciferase induced by test substance stimulation in each well of the 96-well plate was divided by a luminescence value derived from Renilla luciferase to calculate a value (fluc/hRluc) as a signal, which was then used in analysis. The signal under each transfection condition was normalized with the signal value (fluc/hRluc) under an odorant stimulation-free condition defined as 0% and the signal value (fluc/hRluc) by stimulation with 10 μM forskolin defined as 100%, and used as a response (%) in analysis.

[2] = biological target: T2, OR4S2 (original olfactory receptor) (Homo sapiens, UniProt Q8NH73); details: for dose dependence of the response of OR4S2 / response of OR4S2: in the presence of a copper ion
T2 construct: expressed in transfected cells; host or cells: HEK293
T2 sequence (Q8NH73 1-311): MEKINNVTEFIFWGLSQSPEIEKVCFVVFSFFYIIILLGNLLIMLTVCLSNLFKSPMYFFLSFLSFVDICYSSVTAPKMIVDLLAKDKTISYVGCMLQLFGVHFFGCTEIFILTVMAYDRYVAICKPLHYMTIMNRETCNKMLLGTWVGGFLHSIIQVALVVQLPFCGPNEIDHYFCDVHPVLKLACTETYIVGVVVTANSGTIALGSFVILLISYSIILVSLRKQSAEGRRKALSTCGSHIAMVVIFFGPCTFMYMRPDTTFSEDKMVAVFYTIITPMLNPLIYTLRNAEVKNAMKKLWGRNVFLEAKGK
Description: as §1, §2

[3] = biological target: T3, consensus OR2L13 (Homo sapiens, UniProt Q8N349, C217Y/C28L/D174N/F161Y/F208L/F25L/F309S/G145I/H228R/H49R/H6Q/I211L/I240C/I248T/I24L/L123V/L17F/L185P/R301T/S128P/S215A/T115A/T149I/T189M/Y130H/Y82F); details: in the presence of a copper ion
T3 construct: Flag (N); Rho tag (N); expressed in transfected cells; host or cells: HEK293
T3 sequence (Q8N349 1-312 H6Q/L17F/I24L/F25L/C28L/H49R/Y82F/T115A/L123V/S128P/Y130H/G145I/T149I/F161Y/D174N/L185P/T189M/F208L/I211L/S215A/C217Y/H228R/I240C/I248T/R301T/F309S): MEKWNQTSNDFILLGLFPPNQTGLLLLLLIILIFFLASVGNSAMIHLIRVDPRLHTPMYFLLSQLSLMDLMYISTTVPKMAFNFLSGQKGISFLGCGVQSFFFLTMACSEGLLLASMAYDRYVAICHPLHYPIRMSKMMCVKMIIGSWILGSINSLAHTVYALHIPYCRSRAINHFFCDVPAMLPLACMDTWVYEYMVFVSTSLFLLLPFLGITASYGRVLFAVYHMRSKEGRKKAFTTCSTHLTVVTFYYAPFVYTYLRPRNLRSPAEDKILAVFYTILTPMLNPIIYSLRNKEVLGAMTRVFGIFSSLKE
Description: as §1, §2

[4] = biological target: T4, consensus OR2T4 (Homo sapiens, UniProt Q8NH00, A104M/A342V/C83S/E340G/F135L/G202R/G259R/I245V/L252F/L277M/L47V/N218K/R201C/S177A/T338N/V244T/V317L)
T4 construct: expressed in transfected cells; host or cells: HEK293
T4 sequence (Q8NH00 with tags, fused parts or gaps L47V/C83S/A104M/F135L/S177A/R201C/G202R/N218K/V244T/I245V/L252F/G259R/L277M/V317L/T338N/E340G/A342V): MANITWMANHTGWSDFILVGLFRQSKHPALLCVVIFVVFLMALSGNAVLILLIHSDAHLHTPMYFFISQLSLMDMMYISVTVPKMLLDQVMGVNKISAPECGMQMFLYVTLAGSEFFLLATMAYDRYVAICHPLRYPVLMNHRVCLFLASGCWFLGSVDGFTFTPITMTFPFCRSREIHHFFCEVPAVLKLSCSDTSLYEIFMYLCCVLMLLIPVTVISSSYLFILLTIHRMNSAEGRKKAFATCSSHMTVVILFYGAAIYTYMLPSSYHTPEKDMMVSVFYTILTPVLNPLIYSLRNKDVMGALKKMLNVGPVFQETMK
Description: as §1, §2

[5] = biological target: T5, consensus OR6B3 (Homo sapiens, UniProt Q8NGW1, A219G/C161Y/C234R/F239S/F305L/G10S/I281L/L135I/L142V/M157V/M215V/P138T/Q89R/R8K/S64G/T78I/V136M/V15L/V166A/V250I)
T5 construct: expressed in transfected cells; host or cells: HEK293
T5 sequence (Q8NGW1 with tags, fused parts or gaps R8K/G10S/V15L/S64G/T78I/Q89R/L135I/V136M/P138T/L142V/M157V/C161Y/V166A/M215V/A219G/C234R/F239S/V250I/I281L/F305L): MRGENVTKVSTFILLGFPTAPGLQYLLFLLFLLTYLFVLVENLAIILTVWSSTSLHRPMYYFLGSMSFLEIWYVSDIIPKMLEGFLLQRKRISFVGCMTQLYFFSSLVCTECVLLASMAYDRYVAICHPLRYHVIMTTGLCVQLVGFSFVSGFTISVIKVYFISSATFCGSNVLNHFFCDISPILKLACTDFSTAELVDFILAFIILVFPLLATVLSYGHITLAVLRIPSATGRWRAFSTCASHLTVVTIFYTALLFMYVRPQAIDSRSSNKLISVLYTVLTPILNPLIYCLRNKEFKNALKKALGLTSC
Description: as §1, §2

[6] = in the presence of a copper ion
[7] = read-out: EC50(μM) with 30 μM CuCl2; consensus OR2T11; 30 μM CuCl2

T1 sequence (Q8NH01 whole entry, looked up, the tested form may be a part): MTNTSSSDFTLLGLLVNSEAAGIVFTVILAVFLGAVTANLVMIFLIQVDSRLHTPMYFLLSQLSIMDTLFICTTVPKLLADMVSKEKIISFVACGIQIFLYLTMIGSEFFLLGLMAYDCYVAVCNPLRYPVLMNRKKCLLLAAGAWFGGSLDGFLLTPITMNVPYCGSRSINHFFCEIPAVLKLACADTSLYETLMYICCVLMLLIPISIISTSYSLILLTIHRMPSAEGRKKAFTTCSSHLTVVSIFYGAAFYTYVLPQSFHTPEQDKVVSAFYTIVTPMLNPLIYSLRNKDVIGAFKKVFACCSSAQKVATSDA

Row | EC50 ([1]; consensus OR2T11; 30 μM CuCl2; read-out: EC50(μM) with 30 μM CuCl2) [µM] | EC50 ([2]; OR4S2 (original), 30 μM CuCl2, read-out: EC50(μM) with 30 μM CuCl2) [µM] | SMILES | dose dependence of the response of consensus OR2T11 [1, 6] | response of consensus OR2T11 [1, 6] | dose dependence of the response of OR4S2 [2] | response of OR4S2 [2] | response of consensus OR2L13 [3] | response of consensus OR2T4 [4, 6] | response of consensus OR6B3 [5, 6] | EC50 [1, 7] [µM] | EC50 [4] [µM] | dose dependence of the response of consensus OR2T4 [4, 6] | EC50 [2] [µM] | EC50 [5] [µM] | dose dependence of the response of consensus OR6B3 [5, 6]
1 | 26 | 28 | CSSSC [dimethyl trisulfide] | dose-dependent response | responded | dose-dependent response | responded | responded | responded | responded |  |  |  |  |  | 
2 |  |  | CS [methyl mercaptan] | dose-dependent response | responded |  | responded | responded | responded | responded | 5 | 340 | dose-dependent response |  |  | 
3 |  |  | CSSC [dimethyl disulfide] | dose-dependent response | responded | dose-dependent response | responded | responded | responded | responded | 246 |  |  | 530 | 1600 | dose-dependent response
